These compounds were tested against T1, ERα protein (HiBiT-tagged) in ESR1_HiBiT KI MCF7 cells (Homo sapiens, UniProt P03372) (assay: Nano Glo HiBiT Lytic Degradation Assay). Details: 6 hours with compound, 14-point dose response 1:3, bell-shape curve fit, half-maximal effect of first Hill model, read-out: MCF7 ESR1 HiBiT - (DC50).
T1 sequence (P03372 1-595): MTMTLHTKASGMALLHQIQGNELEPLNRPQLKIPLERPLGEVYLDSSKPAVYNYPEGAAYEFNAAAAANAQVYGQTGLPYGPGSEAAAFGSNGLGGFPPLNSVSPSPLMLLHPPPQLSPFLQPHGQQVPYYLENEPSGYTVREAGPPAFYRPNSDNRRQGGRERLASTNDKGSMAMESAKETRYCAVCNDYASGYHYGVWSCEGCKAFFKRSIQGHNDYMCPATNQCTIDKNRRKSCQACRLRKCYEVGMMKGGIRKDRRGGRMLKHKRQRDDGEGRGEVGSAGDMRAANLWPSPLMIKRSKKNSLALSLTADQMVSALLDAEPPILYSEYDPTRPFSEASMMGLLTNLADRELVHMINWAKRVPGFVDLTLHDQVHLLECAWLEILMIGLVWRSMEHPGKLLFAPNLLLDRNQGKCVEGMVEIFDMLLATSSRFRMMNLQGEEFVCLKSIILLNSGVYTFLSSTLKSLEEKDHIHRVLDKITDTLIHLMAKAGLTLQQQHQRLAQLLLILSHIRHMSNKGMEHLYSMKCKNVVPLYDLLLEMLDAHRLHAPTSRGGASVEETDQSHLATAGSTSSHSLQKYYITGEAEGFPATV
Type: cell-based
Procedure, shortened: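 HiBiT-tagged endogenous ERα remaining in MCF7 knock-in cells was quantified by lytic luminescence after a 6 h treatment. DC50 values derive from a bell-shaped curve, taken at the first Hill component's half-maximal effect.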

SMILES | DC50
O=C1CCC(c2cccc(N3CCC4(CCN(CC5CCN(c6ccc([C@@H]7c8ccc(O)cc8CC[C@@H]7c7ccccc7)cc6)CC5)CC4)CC3)c2)C(=O)N1 (stereo partly drawn) [Compound I-183, 3-(3-(9-((1-(4-((1R,2S)-6-hydroxy-2-phenyl-1,2,3,4-tetrahydronaphthalen-1-yl)phenyl)piperidin-4-yl)methyl)-3,9-diazaspiro[5.5]undecan-3-yl)phenyl)piperidine-2,6-dione] | ≥ 10000 nM
Cn1nc(C2CCC(=O)NC2=O)c2ccc(N3CCN(CC4CCN(c5ccc([C@@H]6c7ccc(O)cc7CC[C@@H]6c6ccccc6)cc5)CC4)CC3)cc21 (stereo partly drawn) [Compound I-188, 3-(6-(4-((1-(4-((1R,2S)-6-hydroxy-2-phenyl-1,2,3,4-tetrahydronaphthalen-1-yl)phenyl)piperidin-4-yl)methyl)piperazin-1-yl)-1-methyl-1H-indazol-3-yl)piperidine-2,6-dione] | 1.23 nM
Cn1nc(C2CCC(=O)NC2=O)c2cccc(N3CCN(CC4CCN(c5ccc([C@@H]6c7ccc(O)cc7CC[C@@H]6c6ccccc6)cc5)CC4)CC3)c21 (stereo partly drawn) [Compound I-189, 3-(7-(4-((1-(4-((1R,2S)-6-hydroxy-2-phenyl-1,2,3,4-tetrahydronaphthalen-1-yl)phenyl)piperidin-4-yl)methyl)piperazin-1-yl)-1-methyl-1H-indazol-3-yl)piperidine-2,6-dione] | 2 nM
Cn1c(=O)n(C2CCC(=O)NC2=O)c2ccc(N3CCN(CC4CCN(c5ccc([C@@H]6c7ccc(O)cc7CC[C@@H]6c6ccccc6)cc5)CC4)CC3)cc21 (stereo partly drawn) [Compound I-190, 3-(5-(4-((1-(4-((1R,2S)-6-hydroxy-2-phenyl-1,2,3,4-tetrahydronaphthalen-1-yl)phenyl)piperidin-4-yl)methyl)piperazin-1-yl)-3-methyl-2-oxo-2,3-dihydro-1H-benzo[d]imidazol-1-yl)piperidine-2,6-dione] | 0.4 nM
Cn1c(=O)n(C2CCC(=O)NC2=O)c2cccc(N3CCN(CC4CCN(c5ccc([C@@H]6c7ccc(O)cc7CC[C@@H]6c6ccccc6)cc5)CC4)CC3)c21 (stereo partly drawn) [Compound I-191, 3-(4-(4-((1-(4-((1R,2S)-6-hydroxy-2-phenyl-1,2,3,4-tetrahydronaphthalen-1-yl)phenyl)piperidin-4-yl)methyl)piperazin-1-yl)-3-methyl-2-oxo-2,3-dihydro-1H-benzo[d]imidazol-1-yl)piperidine-2,6-dione] | 1.09 nM
O=C1CC[C@H](N2Cc3cc(N4CCN(CC5CCN(c6ccc([C@@H]7c8ccc(O)cc8C(F)(F)C[C@@H]7c7ccc(F)cc7)cc6)CC5)CC4)ccc3C2=O)C(=O)N1 [Compound I-192, (S)-3-(5-(4-((1-(4-((1R,2S)-4,4-difluoro-2-(4-fluorophenyl)-6-hydroxy-1,2,3,4-tetrahydronaphthalen-1-yl)phenyl)piperidin-4-yl)methyl)piperazin-1-yl)-1-oxoisoindolin-2-yl)piperidine-2,6-dione] | 0.62 nM
O=C1CC[C@H](N2Cc3cc(N4CCN(CC5CCN(c6ccc([C@@H]7c8ccc(O)cc8C(F)(F)C[C@@H]7c7ccccc7)cc6F)CC5)CC4)ccc3C2=O)C(=O)N1 [Compound I-194, (S)-3-(5-(4-((1-(4-((1R,2S)-4,4-difluoro-6-hydroxy-2-phenyl-1,2,3,4-tetrahydronaphthalen-1-yl)-2-fluorophenyl)piperidin-4-yl)methyl)piperazin-1-yl)-1-oxoisoindolin-2-yl)piperidine-2,6-dione] | 0.41 nM
O=C1CC[C@H](N2Cc3cc(N4CCN(CC5CCN(c6ccc([C@@H]7c8ccc(O)cc8C(F)(F)C[C@@H]7CC7CCCC7)cc6)CC5)CC4)ccc3C2=O)C(=O)N1 [Compound I-196, (3S)-3-[5-[4-[[1-[4-[(1R,2S)-2-(cyclopentylmethyl)-4,4-difluoro-6-hydroxy-tetralin-1-yl]phenyl]-4-piperidyl]methyl]piperazin-1-yl]-1-oxo-isoindolin-2-yl]piperidine-2,6-dione] | 2 nM
CC(C)C[C@H]1CC(F)(F)c2cc(O)ccc2[C@H]1c1ccc(N2CCC(CN3CCN(c4ccc5c(c4)CN([C@H]4CCC(=O)NC4=O)C5=O)CC3)CC2)cc1 [Compound I-197, (S)-3-(5-(4-((1-(4-((1R,2S)-4,4-difluoro-6-hydroxy-2-isobutyl-1,2,3,4-tetrahydronaphthalen-1-yl)phenyl)piperidin-4-yl)methyl)piperazin-1-yl)-1-oxoisoindolin-2-yl)piperidine-2,6-dione] | 0.49 nM
O=C1CC[C@H](N2Cc3cc(N4CCN(CC5CCN(c6ccc([C@@H]7c8ccc(O)cc8C(F)(F)C[C@@H]7C7CCCC7)cc6)CC5)CC4)ccc3C2=O)C(=O)N1 [Compound I-198, (S)-3-(5-(4-((1-(4-((1R,2R)-2-cyclopentyl-4,4-difluoro-6-hydroxy-1,2,3,4-tetrahydronaphthalen-1-yl)phenyl)piperidin-4-yl)methyl)piperazin-1-yl)-1-oxoisoindolin-2-yl)piperidine-2,6-dione] | 0.93 nM
O=C1CC[C@H](N2Cc3cc(N4CCN(CC5CCN(c6ccc([C@@H]7c8ccc(O)cc8C(F)(F)C[C@@H]7c7ccccc7)c(F)c6)CC5)CC4)ccc3C2=O)C(=O)N1 [Compound I-199, (S)-3-(5-(4-((1-(4-((1S,2S)-4,4-difluoro-6-hydroxy-2-phenyl-1,2,3,4-tetrahydronaphthalen-1-yl)-3-fluorophenyl)piperidin-4-yl)methyl)piperazin-1-yl)-1-oxoisoindolin-2-yl)piperidine-2,6-dione] | 0.33 nM
O=C1CC[C@H](N2Cc3cc(N4CCN(CC5CCN(c6ccc([C@@H]7c8ccc(O)cc8C(F)(F)C[C@@H]7c7ccccc7)cn6)CC5)CC4)ccc3C2=O)C(=O)N1 [Compound I-202, (3S)-3-[5-[4-[[1-[5-[(1S,2S)-4,4-difluoro-6-hydroxy-2-phenyl-tetralin-1-yl]-2-pyridyl]-4-piperidyl]methyl]piperazin-1-yl]-1-oxo-isoindolin-2-yl]piperidine-2,6-dione] | 0.3 nM
O=C1CC[C@H](N2Cc3cc(N4CCN(CC5CCN(c6ccc([C@@H]7c8ccc(O)cc8C(F)(F)C[C@@H]7c7ccccc7)nc6)CC5)CC4)ccc3C2=O)C(=O)N1 [Compound I-203, (S)-3-(5-(4-((1-(6-((1S,2S)-4,4-difluoro-6-hydroxy-2-phenyl-1,2,3,4-tetrahydronaphthalen-1-yl)pyridin-3-yl)piperidin-4-yl)methyl)piperazin-1-yl)-1-oxoisoindolin-2-yl)piperidine-2,6-dione] | 0.23 nM
CC(C)(O)[C@H]1CCc2cc(O)ccc2[C@H]1c1ccc(N2CCC(CN3CCN(c4ccc5c(c4)CN([C@H]4CCC(=O)NC4=O)C5=O)CC3)CC2)cc1 [Compound I-204, (S)-3-(5-(4-((1-(4-((1R,2S)-6-hydroxy-2-(2-hydroxypropan-2-yl)-1,2,3,4-tetrahydronaphthalen-1-yl)phenyl)piperidin-4-yl)methyl)piperazin-1-yl)-1-oxoisoindolin-2-yl)piperidine-2,6-dione] | 2 nM
CC(C)(O)[C@@H]1CCc2cc(O)ccc2[C@@H]1c1ccc(N2CCC(CN3CCN(c4ccc5c(c4)CN([C@H]4CCC(=O)NC4=O)C5=O)CC3)CC2)cc1 [Compound I-219, (S)-3-(5-(4-((1-(4-((1S,2R)-6-hydroxy-2-(2-hydroxypropan-2-yl)-1,2,3,4-tetrahydronaphthalen-1-yl)phenyl)piperidin-4-yl)methyl)piperazin-1-yl)-1-oxoisoindolin-2-yl)piperidine-2,6-dione] | ≥ 10000 nM
CC(C)C[C@@H]1CC(F)(F)c2cc(O)ccc2[C@@H]1c1ccc(N2CCC(CN3CCN(c4ccc5c(c4)CN([C@H]4CCC(=O)NC4=O)C5=O)CC3)CC2)cc1 [Compound I-220, (S)-3-(5-(4-((1-(4-((1S,2R)-4,4-difluoro-6-hydroxy-2-isobutyl-1,2,3,4-tetrahydronaphthalen-1-yl)phenyl)piperidin-4-yl)methyl)piperazin-1-yl)-1-oxoisoindolin-2-yl)piperidine-2,6-dione] | 14 nM
O=C1CC[C@H](N2Cc3cc(N4CCN(CC5CCN(c6ccc([C@H]7c8ccc(O)cc8C(F)(F)C[C@H]7CC7CCCC7)cc6)CC5)CC4)ccc3C2=O)C(=O)N1 [Compound I-229, (3S)-3-[5-[4-[[1-[4-[(1S,2R)-2-(cyclopentylmethyl)-4,4-difluoro-6-hydroxy-tetralin-1-yl]phenyl]-4-piperidyl]methyl]piperazin-1-yl]-1-oxo-isoindolin-2-yl]piperidine-2,6-dione] | ≥ 10000 nM
O=C1CC[C@H](N2Cc3cc(N4CCN(CC5CCN(c6ccc([C@H]7c8ccc(O)cc8C(F)(F)C[C@H]7C7CCCC7)cc6)CC5)CC4)ccc3C2=O)C(=O)N1 [Compound I-234, (S)-3-(5-(4-((1-(4-((1S,2S)-2-cyclopentyl-4,4-difluoro-6-hydroxy-1,2,3,4-tetrahydronaphthalen-1-yl)phenyl)piperidin-4-yl)methyl)piperazin-1-yl)-1-oxoisoindolin-2-yl)piperidine-2,6-dione] | 959 nM
